This note sets out measurements from ChEMBL document CHEMBL3526084, “Cytochrome P450 dysregulations in thioacetamide-induced liver cirrhosis in rats and the counteracting effects of hepatoprotective agents” (Drug Metab Dispos, 2012).

The source made the active and inactive calls. The calls are words filed in the database; no cut-off is given here.

Series [1] has as its system Liver microsome. Briefly: Reversal of thioacetamide-induced CYP3A2 inactivation in rat liver microsomes at 0.2 to 5 mM in presence of NADPH. The series is classed as functional. A general note: Liver microsomes are a subcellular fraction often used to study metabolism.
Series [2] has as its system Rattus norvegicus. The experiment in a line: Upregulation of CYP2C6 in Sprague-Dawley rat liver at 200 mg/kg administered intragastrically qd for 2 weeks by Western blotting analysis. To be noted: in vivo, po, 336 h. In kind it is ADME, organism-based. Further details: dose 200 mg/kg, route intragastric. (In general: In western blotting, separated proteins are transferred to a membrane and probed.)

Series [3] deals with Liver microsome. The experiment in a line: Reversal of thioacetamide-induced CYP2C6 inactivation in rat liver microsomes at 2 to 50 uM in presence of NADPH. The series is classed as functional.
The subject of series [4] is Liver microsome. The experiment in a line: Reversal of thioacetamide-induced CYP2C6 inactivation in rat liver microsomes at 0.2 to 5 mM in presence of NADPH. The series is classed as functional.
For series [5], the system named is Liver microsome. The experiment in a line: Reversal of thioacetamide-induced CYP1A2 inactivation in rat liver microsomes at 0.2 to 5 mM in presence of NADPH. In kind it is functional.
In series [6] the test system is Liver microsome. Briefly: Reversal of thioacetamide-induced CYP2E1 inactivation in rat liver microsomes at 2 to 50 uM in presence of NADPH. The series is classed as functional.
Series [7] has as its system Rattus norvegicus. The experiment in a line: Hepatoprotective activity in thioacetamide-induced Sprague-Dawley rat liver cirrhosis model assessed as reversal of thioacetamide-induced change in serum TBIL level at 200 mg/kg administered intragastrically qd for 2 weeks by […]. The series is classed as functional, organism-based. Further details: dose 200 mg/kg.

Series [8] concerns Rattus norvegicus. The experiment in a line: Downregulation of CYP1A2 in Sprague-Dawley rat liver at 200 mg/kg administered intragastrically qd for 2 weeks by Western blotting analysis. The series is classed as ADME, organism-based. More on the design: dose 200 mg/kg, route intragastric. To be noted: in vivo, po, 336 h.
In series [9] the test system is Liver microsome. Briefly: Reversal of thioacetamide-induced CYP3A2 inactivation in rat liver microsomes at 2 to 50 uM in presence of NADPH. The series is classed as functional.
For series [10], the system named is Rattus norvegicus. Briefly: Upregulation of CYP2E1 in Sprague-Dawley rat liver at 200 mg/kg administered intragastrically qd for 2 weeks by Western blotting analysis. The series is classed as ADME, organism-based. More on the design: dose 200 mg/kg, route intragastric. To be noted: in vivo, po, 336 h.
The subject of series [11] is Rattus norvegicus. Briefly: Hepatoprotective activity in thioacetamide-induced Sprague-Dawley rat liver cirrhosis model assessed as downregulation of CYP1A2 protein level at 200 mg/kg administered intragastrically qd for 2 weeks by Western blotting analysis relative to control. The series is classed as functional, organism-based. Further details: dose 200 mg/kg.
Series [12] relates to Rattus norvegicus. Briefly: Hepatoprotective activity in thioacetamide-induced Sprague-Dawley rat liver cirrhosis model assessed as downregulation of CYP3A2 protein level at 200 mg/kg administered intragastrically qd for 2 weeks by Western blotting analysis relative to control. The series is classed as functional. To be noted: route intragastric.
For series [13], the system named is Liver microsome. Briefly: Reversal of thioacetamide-induced CYP1A2 inactivation in rat liver microsomes at 2 to 50 uM in presence of NADPH. The series is classed as functional.
Series [14] concerns Rattus norvegicus. The experiment in a line: Hepatoprotective activity in thioacetamide-induced Sprague-Dawley rat liver cirrhosis model assessed as reversal of thioacetamide-induced change in serum AST level at 200 mg/kg administered intragastrically qd for 2 weeks by […]. The series is classed as functional, organism-based. More on the design: dose 200 mg/kg.

Series [15] relates to Rattus norvegicus. The experiment in a line: Upregulation of CYP3A2 in Sprague-Dawley rat liver at 200 mg/kg administered intragastrically qd for 2 weeks by Western blotting analysis. More on the design: dose 200 mg/kg, route intragastric. In kind it is ADME, organism-based. To be noted: in vivo, po, 336 h.
In series [16] the test system is Rattus norvegicus. The experiment in a line: Hepatoprotective activity in thioacetamide-induced Sprague-Dawley rat liver cirrhosis model assessed as downregulation of CYP2C6 protein level at 200 mg/kg administered intragastrically qd for 2 weeks by Western blotting analysis relative to control. More on the design: dose 200 mg/kg. In kind it is functional, organism-based.

Series [17] concerns Rattus norvegicus. The experiment in a line: Hepatoprotective activity in thioacetamide-induced Sprague-Dawley rat liver cirrhosis model assessed as reversal of thioacetamide-induced change in serum ALT level at 200 mg/kg administered intragastrically qd for 2 weeks by […]. The series is classed as functional, organism-based. Further details: dose 200 mg/kg.

For series [18], the system named is Liver microsome. The experiment in a line: Reversal of thioacetamide-induced CYP2E1 inactivation in rat liver microsomes at 0.2 to 5 mM in presence of NADPH. In kind it is functional.
The test system of series [19] is Rattus norvegicus. Briefly: Hepatoprotective activity in thioacetamide-induced Sprague-Dawley rat liver cirrhosis model assessed as downregulation of CYP2E1 protein level at 200 mg/kg administered intragastrically qd for 2 weeks by Western blotting analysis relative to control. In kind it is functional. To be noted: route intragastric.

For the molecule `COC(=O)c1cc(OC)c2c(c1-c1c(C(=O)OC)cc(OC)c3c1OCO3)OCO2` [BIFENDATE], the outcome with Liver microsome [1], in the series with Liver microsome [3], with Liver microsome [4], in the series on Liver microsome [5], in the series on Liver microsome [6] and in the series on Liver microsome [9] was inactive. Besides, the outcome with Liver microsome [13] and in the series on Liver microsome [18] was inactive. The outcome in the series on Rattus norvegicus [2], in the series on Rattus norvegicus [8], in the series with Rattus norvegicus [10] and in the series on Rattus norvegicus [15] was Active. In addition, the result in the series with Rattus norvegicus [7], in the series on Rattus norvegicus [11], in the series with Rattus norvegicus [14], in the series with Rattus norvegicus [16] and with Rattus norvegicus [17] was Active. Moreover, the “fold change (FC)” value is reported as 1.56 in the series with Rattus norvegicus [12] and 2.26 with Rattus norvegicus [19].
